# Results as given in patent publication US8962637B2, “Bicyclic compounds and their uses as dual c-SRC/JAK inhibitors” (Debiopharm S.A., priority 2010, dated 2015).
# What was measured:
# A431 cancer cell line = assay: Inhibition of cell growth in A431; type: cell-based; conditions: Homo sapiens, A-431
# Mda-Mb-231 cells = assay: Cell viability assay (XTT assay), Mda-Mb-231; type: cell-based; conditions: Homo sapiens, 72 hrs
# Protocol: (§1) Mda-Mb-231 or A549 cells were seeded onto a 96-well micro plate. Next day compounds were added to cells and incubated for 72 hrs. Compound treatment was done in triplicates. After 72 hrs cell culture media was aspirated from the wells and XTT working solution was added and plates were incubated for 2-5 hrs. The absorbance of the samples was measured with a spectrophotometer at a wavelength of 465 nm. EC50 values were calculated using Graphpad Prism. Tumor cell lines used in the examples of the present invention were procured from ATCC. Description of the cell lines is included in the following table: […]
# c-Src = c-Src (Homo sapiens (Human), UniProt P12931); assay: TR-FRET c-Src kinase assay; type: biochemical; conditions: ATP 50 μM; for inhibition at 0.1 µM: read-out: c-SRC % inhibition at 100 nM, 100 nM; for inhibition at 1 µM: read-out: c-SRC % inhibition at 1 μM
# Chain of c-Src (P12931 whole entry, looked up): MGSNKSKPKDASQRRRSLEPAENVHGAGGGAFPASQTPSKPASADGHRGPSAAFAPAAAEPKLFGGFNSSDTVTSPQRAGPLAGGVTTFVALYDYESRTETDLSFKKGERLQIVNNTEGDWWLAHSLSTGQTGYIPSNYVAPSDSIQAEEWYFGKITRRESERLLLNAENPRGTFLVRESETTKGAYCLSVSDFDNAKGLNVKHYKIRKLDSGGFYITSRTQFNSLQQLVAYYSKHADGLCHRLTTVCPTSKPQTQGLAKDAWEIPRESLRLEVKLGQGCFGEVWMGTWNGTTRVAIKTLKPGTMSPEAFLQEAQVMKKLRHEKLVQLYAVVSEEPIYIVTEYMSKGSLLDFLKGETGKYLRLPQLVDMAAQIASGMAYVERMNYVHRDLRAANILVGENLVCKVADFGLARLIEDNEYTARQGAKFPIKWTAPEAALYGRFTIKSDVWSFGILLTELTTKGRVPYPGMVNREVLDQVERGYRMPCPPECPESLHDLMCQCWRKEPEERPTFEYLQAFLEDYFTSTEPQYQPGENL
# Protocol: (§2) Compounds were screened in the TR-FRET assay for JAK2 and c-Src kinase inhibition. Ultra light poly GT (Perkin Elmer) was used as the substrate for JAK2 and c-Src with the ATP concentration of 10 μM and 50 μM, respectively. […] The dose-response curve fitting was done using GraphPad Prism software.
# A549 cells = assay: Cell viability assay (XTT assay), A549; type: cell-based; conditions: Homo sapiens, 72 hrs
# Protocol: as §1, with “Next” for “Mda-Mb-231 or A549 cells were seeded onto a 96-well micro plate. Next”, “The absorbance of the samples was measured with a spectrophotometer at a wavelength of 465 nm.” left out
# pStat3 [1] = assay: In-Cell-Western blot assay for pStat3 (ICW) in A431 cells; type: cell-based; conditions: Homo sapiens, A-431, 2 hrs, read-out: pSTAT3 inhibition
# Protocol: A431 cells were seeded onto a 96-well micro plate. After overnight serum starvation cells were incubated with compounds for 2 hrs. Cells were fixed with 4% paraformaldehyde in PBS and then permeabilized with 0.1% Triton X-100 in PBS (PBST). Cells were blocked with 5% BSA in PBST for 2 hrs, followed by overnight incubation with phospho Stat3 antibody. Cells were washed and incubated with europium-labeled anti-rabbit secondary antibody for 2 hrs. After washing enhancement solution was added to the wells. The micro-plate was read on the Victor instrument at the Europium setting. The Hoechst readings were used to normalize for cell number. IC50 values were calculated with the normalized europium values using Graphpad Prism.
# JAK2 = JAK2 (Homo sapiens (Human), UniProt O60674); assay: TR-FRET JAK2 kinase assay; type: biochemical; conditions: ATP 10 μM; for inhibition at 0.1 µM: read-out: JAK2 % inhibition at 100 nM, 100 nM; for inhibition at 1 µM: read-out: JAK2 % inhibition at 1 μM
# Chain of JAK2 (O60674 whole entry): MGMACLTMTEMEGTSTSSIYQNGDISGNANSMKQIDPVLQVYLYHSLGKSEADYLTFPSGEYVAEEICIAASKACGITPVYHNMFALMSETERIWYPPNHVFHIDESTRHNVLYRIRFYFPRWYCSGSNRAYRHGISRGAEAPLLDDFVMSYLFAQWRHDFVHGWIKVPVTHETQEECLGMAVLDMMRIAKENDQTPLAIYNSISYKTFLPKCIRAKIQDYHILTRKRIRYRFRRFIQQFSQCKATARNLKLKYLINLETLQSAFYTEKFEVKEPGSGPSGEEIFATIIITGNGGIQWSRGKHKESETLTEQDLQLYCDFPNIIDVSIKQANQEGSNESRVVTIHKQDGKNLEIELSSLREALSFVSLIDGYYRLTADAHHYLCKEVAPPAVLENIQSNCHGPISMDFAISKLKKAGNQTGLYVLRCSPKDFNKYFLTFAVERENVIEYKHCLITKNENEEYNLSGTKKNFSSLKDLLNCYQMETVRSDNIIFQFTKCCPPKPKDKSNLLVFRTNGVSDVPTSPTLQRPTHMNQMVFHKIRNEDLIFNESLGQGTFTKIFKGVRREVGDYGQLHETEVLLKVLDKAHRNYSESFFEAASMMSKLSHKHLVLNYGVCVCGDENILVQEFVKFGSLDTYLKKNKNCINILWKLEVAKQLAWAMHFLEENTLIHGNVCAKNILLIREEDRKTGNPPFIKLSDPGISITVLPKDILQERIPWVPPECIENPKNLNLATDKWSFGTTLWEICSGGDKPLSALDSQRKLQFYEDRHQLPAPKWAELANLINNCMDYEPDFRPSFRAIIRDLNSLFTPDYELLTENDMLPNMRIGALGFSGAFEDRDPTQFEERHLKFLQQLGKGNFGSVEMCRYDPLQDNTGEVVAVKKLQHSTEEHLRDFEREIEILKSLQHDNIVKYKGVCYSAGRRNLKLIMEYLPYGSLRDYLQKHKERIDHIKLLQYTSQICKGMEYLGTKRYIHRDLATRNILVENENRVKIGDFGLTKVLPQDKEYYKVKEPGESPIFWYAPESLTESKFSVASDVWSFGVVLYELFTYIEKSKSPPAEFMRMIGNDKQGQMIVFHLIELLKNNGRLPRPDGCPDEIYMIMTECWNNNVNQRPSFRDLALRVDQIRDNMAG
# Protocol: as §2
# Volume distribution = conditions: in vivo
# Excerpt: Table 8 provides some volume distribution values of the compounds of the present invention.
# pStat3 [2] = assay: Quantification of pStat3 in PBMCs by flow cytometry; type: in vivo, mice; conditions: A549 Xenograft model
# Protocol: Phosphorylation of Stat3 was stimulated by addition of hIL6 (10 ug/mL) for 30 min at 37° C. Blood was fixed with formaldehyde (final 2% v/v) for 10 min at 37° C.
# Buffy coat (PBMCs) was separated by aspirating translucent layer using pipetteman and washed twice with PBS-1×
# Pre chilled PBMC's were permeabilized by adding ice cold Methanol, while vortexing gently (final volume 90% MeOH v/v) and incubated for 30 min on ice.
# Permeabilized PBMCs were washed with PBS once. PBMCs re-suspended to 2×10^6 cells in 200 μL of incubation buffer for 10 min at room temperature (RT). Primary Ab was added (1:100 dilution) and incubated 45 min at RT. Washed as before (twice) and re-suspended in fluorochrome conjugated secondary Ab (1:500 dilution) and incubated at RT in dark for 30 min. Washed and re-suspended in […] PBS.
# (§3) Measured pStat3 using FACS caliber machine (BD). Unstained PBMCs was used for cytometry settings. […] Histograms (cell number V/s FL1-H) were plotted. Percentage of cells that are phosphorylated by IL6 stimulation (M2 population), and inhibition of phosphorylation by inhibitor (decrease in M2 population) are calculated on histogram by marking peaks, M1 and M2.
# A549 tumor cells = assay: A549 xenograft model; type: in vivo; conditions: A549 Xenograft model
# Protocol: Sub-cutaneous (SC) injection of 5×10^6 A549 tumor cells on the left flank of 48 female athymic nude mice. Randomization of mice 14 days after tumor cell injection into 6 groups of 8 mice each with a mean tumor volume of 134±5 mm3.
# Formulation: 20% HPC, 2% ethanol solution in PBS for the compounds No. 45, 117 and 179.
# • Normal saline for Erlotinib® Dosing route: Oral for the compounds No. 45, 117 and 179, and Erlotinib® Dose Volume: 10 mL/Kg body weight Dosing schedule: Once daily for 14 consecutive days (Q1Dx14) Dosage: • Group1. Vehicle control • Group2. Erlotinib®-100 MPK • Group3. Compound No. 45—10 MPK • Group4. Compound No. 45—30 MPK • Group5. Compound No. 45—100 MPK • Group6. Compound No. 117—30 MPK • Group7. Compound No. 117—100 MPK • Group8. Compound No. 179—10 MPK • Group9. […] Plasma collected for drug concentration estimation and whole blood was collected to isolate PBMCs (peripheral blood monocytes) to determine pStat3 inhibition by flow cytometry as PD readout. Tumors were snap frozen in liquid nitrogen and stored at −80° C. to estimate pStat3 by flow cytometry as PD readout EXPT. 2
# SC injection of 5×10^6 A549 tumor cells on the left flank of 24 female athymic nude mice. Randomization of mice 14 days after tumor cell injection into 3 groups of 8 mice each with a mean tumor volume of 75±7 mm3.
# Formulation: 20% HPC, 2% ethanol solution in PBS for the compound No. 45
# • Normal saline for Erlotinib® Dosing route: Oral for compound No. 45 and Erlotinib® Dose Volume: 10 mL/Kg body weight Dosing schedule: Once daily for 14 consecutive days (Q1Dx14) Dosage: • Group1. Vehicle control • Group2. Compound No. 45—150 MPK • Group3. […] Plasma collected for drug concentration estimation and whole blood was collected to isolate PBMCs to determine pStat3 inhibition by flow cytometry as PD readout. Tumors were snap frozen in liquid nitrogen and stored at −80° C. to estimate pStat3 by flow cytometry as PD readout Results: […]
# pStat3 [3] = assay: Quantification of pStat3 in tumors by flow cytometry; type: in vivo, mice; conditions: A549 Xenograft model
# Protocol: as §3
# Separate the tumour & 200 mg of tumour was crashed (45 mg per ml) by using IKA 10 at Speed #4 for 10 seconds. Sieve the tumour extract through 100 u, centrifuge at 900 g for 10 min. Re-suspend cells briefly in 0.5-1 ml PBS. Add formaldehyde to a final concentration of 2-4% formaldehyde. Fix for 10 minutes at 37° C. Chill tubes on ice for 1 minute.
# Permeabilize cells by adding ice-cold 100% methanol slowly to pre-chilled cells, while gently vortexing, to a final concentration of 90% methanol. Alternatively, to remove fix prior to permeabilization, pellet cells by centrifugation and re-suspend in 90% methanol. Incubate 30 minutes on ice. Proceed with staining or store cells at −20° C. in 90% methanol. Aliquot 0.5-1×10^6 cells into each assay tube (by volume). Add 2-3 ml Incubation Buffer to each tube and rinse by centrifugation. Repeat. Re-suspend cells in 100 μl Incubation Buffer per assay tube. Analyze by flow cytometry like PBMCs.
EC50 (A431 cancer cell line),EC50 (Mda-Mb-231 cells),EC50 (A549 cells),IC50 (pStat3 [1]),inhibition at 0.1 µM (c-Src),inhibition at 1 µM (c-Src),SMILES,further results
1450 nM,3600 nM,3400 nM,450 nM,–,–,"Cc1ccc(NC(=O)c2cccc(C(F)(F)F)c2)cc1N1CCc2nc(Nc3ccc(OCCN4CCCC4)cc3)ncc2C1=O [Compound 7, N-(4-Methyl-3-{5-oxo-2-[4-(2-pyrrolidin-1-yl-ethoxy)-phenylamino]-7,8-dihydro-5H-pyrido[4,3-d]pyrimidin-6-yl}-phenyl)-3-trifluoromethyl-benzamide]",IC50 (c-Src): 16 nM; IC50 (JAK2): 83 nM
570 nM,530 nM,78 nM,580 nM,–,–,Cc1ccc(NC(=O)c2cccc(C(C)(C)C)c2)cc1N1CCc2nc(Nc3ccc(N4CCN(C)CC4)cc3)ncc2C1=O [Compound 86],–
–,880 nM,–,–,74%,90%,"Cc1ccc(NC(=O)CCC(F)(F)F)cc1N1CCc2nc(Nc3ccc(N4CCN(C)CC4)cc3)ncc2C1 [Compound 131, 4,4,4-Trifluoro-N-(4-methyl-3-{2-[4-(4-methyl-piperazin-1-yl)-phenylamino]-7,8-dihydro-5H-pyrido[4,3-d]pyrimidin-6-yl}-phenyl)-butyramide]",Vd (Volume distribution): 7.14 L/kg
–,41 nM,47 nM,480 nM,–,–,"Cc1ccc(NC(=O)c2cccc(C(F)(F)F)c2)cc1N1CCc2nc(Nc3ccc(C(=O)N4CCN(C)CC4)nc3)ncc2C1 [Compound 132, N-(4-Methyl-3-{2-[6-(4-methyl-piperazine-1-carbonyl)-pyridin-3-ylamino]-7,8-dihydro-5H-pyrido[4,3-d]pyrimidin-6-yl}-phenyl)-3-trifluoromethyl-benzamide]",IC50 (c-Src): 5 nM; IC50 (JAK2): 3 nM
670 nM,74 nM,426 nM,670 nM,–,–,"Cc1ccc(NC(=O)c2cccc(C(F)(F)F)c2)cc1N1CCc2nc(Nc3cccc(CN4CCN(C)CC4)c3)ncc2C1 [Compound 137, N-(4-Methyl-3-{2-[3-(4-methyl-piperazin-1-ylmethyl)-phenylamino]-7,8-dihydro-5H-pyrido[4,3-d]pyrimidin-6-yl]-phenyl)-3-trifluoromethyl-benzamide]",IC50 (c-Src): 7 nM
1070 nM,1620 nM,1480 nM,140 nM,66%,87%,"Cc1ccc(NC(=O)c2cccc(C(F)(F)F)c2)cc1N1CCc2nc(Nc3ccc(OCCCN4CCN(C)CC4)cc3)ncc2C1=O [Compound 180, N-[4-Methyl-3-(2-{4-[3-(4-methyl-piperazin-1-yl)-propoxy]-phenylamino}-5-oxo-7,8-dihydro-5H-pyrido[4,3-d]pyrimidin-6-yl)-phenyl]-3-trifluoromethyl-benzamide]",inhibition at 0.1 µM (JAK2): 67%; inhibition at 1 µM (JAK2): 91%
1300 nM,3340 nM,2540 nM,–,53%,77%,"O=C(Nc1ccc(Cl)c(N2CCc3nc(Nc4ccc(OCCN5CCCC5)cc4)ncc3C2=O)c1)c1cccc(C(F)(F)F)c1 [Compound 181, N-(4-Chloro-3-{5-oxo-2-[4-(2-pyrrolidin-1-yl-ethoxy)-phenylamino]-7,8-dihydro-5H-pyrido[4,3-d]pyrimidin-6-yl}-phenyl)-3-trifluoromethyl-benzamide]",inhibition at 0.1 µM (JAK2): 85%; inhibition at 1 µM (JAK2): 93%
5070 nM,2760 nM,1080 nM,–,51%,80%,"Cc1ccc(NC(=O)c2cccc(C(F)(F)F)c2)cc1N1CCc2nc(Nc3ccc(OCCCN4CCOCC4)cc3)ncc2C1=O [Compound 182, N-(4-Methyl-3-{2-[4-(3-morpholin-4-yl-propoxy)-phenylamino]-5-oxo-7,8-dihydro-5H-pyrido[4,3-d]pyrimidin-6-yl}-phenyl)-3-trifluoromethyl-benzamide]",inhibition at 0.1 µM (JAK2): 55%; inhibition at 1 µM (JAK2): 85%
–,–,–,–,–,–,"O=C(COc1ccc(Nc2ncc3c(n2)CCN(c2cc(NC(=O)c4cccc(C(F)(F)F)c4)ccc2Cl)C3=O)cc1)NC1CC1 [Compound 185, N-(4-Chloro-3-[2-(4-(cyclopropylcarbamoylmethoxy)phenylamino)-5-oxo-7,8-dihydro-5H-pyrido[4,3-d]pyrimidin-6-yl]-phenyl}-3-trifluoromethyl-benzamide]",Vd (Volume distribution): 0.583 L/kg
–,–,–,–,–,–,"C#Cc1cccc(Nc2ncnc3cc(OCCOC)c(OCCOC)cc23)c1 [Erlotinib, reference compound]",PBMCs % pStat3 inhibition (pStat3 [2]; 100 MPK): 44.43%; % TGI (Tumor Growth Inhibition) (A549 tumor cells; 100 MPK): 59.55%; Tumors % pStat3 inhibition (pStat3 [3]; 100 MPK): 28.14%
–,680 nM,1200 nM,> 10000 nM,–,–,"Cc1cnc(Nc2ccc(OCCN3CCCC3)cc2)nc1Nc1cccc(S(=O)(=O)NC(C)(C)C)c1 [TG101348, reference compound]",–
–,–,–,–,–,–,"CCC1=C[C@@H]2CN(C1)Cc1c([nH]c3ccccc13)[C@@](C(=O)OC)(c1cc3c(cc1OC)N(C)[C@H]1[C@@](O)(C(=O)OC)[C@H](OC(C)=O)[C@]4(CC)C=CCN5CC[C@]31[C@@H]54)C2 [Vinorelbine, reference compound]",PBMCs % pStat3 inhibition (pStat3 [2]; 8 MPK): 28.8%; % TGI (Tumor Growth Inhibition) (A549 tumor cells; 8 MPK): 51.89%; Tumors % pStat3 inhibition (pStat3 [3]; 8 MPK): 25.2%
